Experiments:
[1] = system: T-98G human glioblastoma cells; assay: cells; settings: read-out: IC50 (μM) ± S.D.; T-98G, MTT, 72 h, 6000 cells/well, best fit nonlinear regression, triplicate wells, n = 3
Experimental: (§1) SH-SY5Y human neuroblastoma cells (population doubling (PD) 20−24), T-98G, and U-87 MG human glioblastoma cells were removed from cryogenic storage, thawed rapidly in a water bath (37 °C) and reconstituted in 75 cm^2 flasks. For SH-SY5Y, the following media were used: Dulbecco’s modified Eagle’s medium/Nutrient F12 Ham (Sigma-Aldrich, Cat. No. D8437) containing 10% heat-inactivated fetal bovine serum, 4 mM L-glutamine, 100 U/mL penicillin, and 100 μg/mL streptomycin. For U-87 MG and T-98G Eagle’s minimal essential medium (ATCC: The Global Bioresource Center, Cat. No. ATCC 30-2003), containing 10% heat-inactivated fetal bovine serum, 4 mM L-glutamine, 100 U/mL penicillin, and 100 μg/mL streptomycin were used.
(§2) Cells were incubated at 37 °C in a humidified atmosphere of 5% CO2 and 95% air until recovered and ready for passaging (approximately 4 days). At between 80% and 90% confluence, the cells were trypsinized with warm (37 °C) sterile 0.5% Trypsin-EDTA (Thermo Fisher, Cat. No. 15400054) and passaged into 175 cm^2 flasks, where they were left to multiply until they reached 80−90% confluence. To plate cells: cultures were trypsinized, resuspended in 20 mL sterile PBS, counted using a cell counter (Olympus cell counter model R1), and plated in 96-well plates at an optimal density of 6000 cells/well in the designated culture media. The cells were left to adhere overnight before treatment the following day, when the culture medium was removed and replaced with the treatment medium. All incubations were conducted in triplicate wells and repeated at least three times (n = 3).
(§3) To calculate TMZ IC50 values in each cell line, TMZ was dissolved in DMSO at a stock concentration of 103 mM, which was then diluted into culture medium on the day of use, with the DMSO final concentration always less than 0.1%. The following concentrations of TMZ were used in the experiments: 0.5, 5, 50, 500, 2500, 5000 μM. The media were sterilized for each treatment media with a 0.22 μm filter before they were added to cell cultures. To determine the IC50 values for each cyclotide in each cell type, cyclotides were dissolved into 10% DMSO and then dilutions used to screen cyclotides with a final DMSO concentration of less than 0.1% The following concentrations of cyclotides were used: 0.1, 1, 5, 10 μM. For co-exposure experiments, a simultaneous exposure of cyclotide and TMZ at each respective dose was added to cell cultures (100 μL final volume per well).
(§4) In accordance with the methods developed by Mosmann and colleagues, the MTT assay was conducted using the Roche cell proliferation kit (Cat. No. 11465007001). Briefly, cells that are active can cleave MTT. The MTT is originally a yellow tetrazolium salt that undergoes a colorimetric change to purple formazan crystals, and the change in absorbance can be measured as an indicator of cell viability/proliferation. For these experiments, cells were plated into 96-well flat-bottom plates, as described in the cell culture above. […] To align with our previous work, experiments were conducted with a 72 h time frame for cytotoxicity evaluation.
(§5) After a 72 h incubation period, plates were removed from the incubator and 10 µL of MTT was added to each well. The plates were returned to the incubator for an additional 4 h, after which 100 µL of a solubilization solution was added to each well. The plates were returned to incubation overnight, and the next day absorbances were read at 570 nm on a Molecular Devices FlexStation 3 using SoftMax Pro Microplate Data Acquisition and Analysis Software (version 7.0.2).

[2] = system: U-87 MG human glioblastoma cells; assay: cells; settings: read-out: IC50 (μM) ± S.D.; U-87 MG, MTT, 72 h, 6000 cells/well, cyclotides 0.1-10 μM, TMZ 0.5-5000 μM, best fit nonlinear regression, triplicate wells, n = 3
Experimental: as §1, §2, §3, §4, §5

[3] = Human serum stability assay (UPLC-MS); settings: 37 °C
Experimental: Established protocols were used to analyze peptide stability in human serum isolated from male AB plasma (Sigma-Aldrich). Briefly, thawed plasma was centrifuged for 10 min at 15,000× g to concentrate lipids. The supernatant was carefully removed with a Pasteur pipette and incubated for 15 min at 37 °C, 5% CO2. […] Controls were synthetic Kalata B1 or TMZ in PBS that were incubated in parallel with human serum test compounds. Serum proteins were denatured with urea (final concentration of 3M) at 4 °C for 10 min., at each time point. Afterwards, trichloroacetic acid (7% final v/v) was added for 10 min to precipitate the proteins. Each sample was centrifuged for 10 min at 15,000× g; the supernatant was removed an evaluated in triplicate using UPLC-MS.
We conducted peptide stability assays in human serum isolated from male AB plasma and then analyzed with UPLC-MS. Synthetic Kalata B1 and TMZ were incubated with human serum and the portion of the peptide remaining was quantified by calculating the area of the respective elution peak in UPLC-MS, compared to the control.
Percentage of Kalata B1 and TMZ remaining upon incubation with human serum. The portion of serum-treated peptide remaining was determined by calculating the area of the respective elution peak in UPLC-MS and comparing it with the control without incubation. Data points are means ± SEM.

[4] = system: U-87 MG glioblastoma cells; assay: MTT co-exposure of synthetic Kalata B1 and TMZ in U-87 MG cells; type: cell-based, human; settings: TMZ 100 µM + synthetic Kalata B1 0.5 µM, MTT 72 h, ANOVA/Tukey
Experimental: To calculate TMZ IC50 values in each cell line, TMZ was dissolved in DMSO at a stock concentration of 103 mM, which was then diluted into culture medium on the day of use, with the DMSO final concentration always less than 0.1%. The following concentrations of TMZ were used in the experiments: 0.5, 5, 50, 500, 2500, 5000 μM. The media were sterilized for each treatment media with a 0.22 μm filter before they were added to cell cultures. […]
In accordance with the methods developed by Mosmann and colleagues, the MTT assay was conducted using the Roche cell proliferation kit (Cat. No. 11465007001). […] The MTT is originally a yellow tetrazolium salt that undergoes a colorimetric change to purple formazan crystals, and the change in absorbance can be measured as an indicator of cell viability/proliferation. […]
Figure 8 Synthetic Kalata B1 increased TMZ-induced cell death in U-87 MG glioblastoma cultures. To determine if synthetic Kalata B1 (K) enhances TMZ (T)-induced cell death in U-87 MG cells, MTT was measured after incubating the cell cultures with concentrations of K (0.5, 1.0, 2.0, and 4.0 μM) and T (100, 200, 400, and 800 μM) both alone and when co-exposed to synthetic Kalata B1 and TMZ as illustrated in panels (A–M). […] Cell viability was measured using MTT and expressed as a percentage of control cultures (culture medium with DMSO only). […]

[5] = system: anaplastic large cell lymphoma (ALCL); settings: mouse model of anaplastic large cell lymphoma; cited from earlier work
Source text: (§6) The development of an in vivo mouse model is vital, yet it requires expertise, significant finances, and large quantities of the target cyclotide. […] A mouse model of anaplastic large cell lymphoma (ALCL) was developed, and the Kalata B1 mutant, named [T20K] Kalata B1, decreased tumor weight and increased ...

interleukin-2 (IL-2) = settings: cited from earlier work
Source text: Although a mechanistic evaluation of Kalata B1 bioactivity was beyond the scope of this research, a brief discussion of the previous mechanistic studies is justified. For instance, Henriques and colleagues provided supporting evidence that cyclotides can target phosphatidylethanolamine (PE)-enriched phospholipids and penetrate the cell via both endocytosis and membrane translocation.

mice = settings: cited from earlier work
Source text: as §6

U-87 glioblastoma cells = settings: MTT; cited from earlier work
U-87 MG cells = settings: U-87 MG; cited from earlier work
glioblastoma cells = settings: cytotoxicity; ref Our previous research; cited from earlier work
U-251 glioblastoma cells = settings: MTT; cited from earlier work
[6] = system: primary human brain endothelial cells; settings: SYTOX green assay; cited from earlier work
Source text: Challenges commonly associated with treating cancer can include low drug uptake across the cellular lipid bilayer, the activity of pumps, such as p-glycoprotein, that efflux drugs out of the cell, and the impenetrability of the blood–brain barrier. Our previous research provided supporting evidence that cyclotides such as CyO2 can act as adjuvants in drug-resistant breast cancer cells, whereby cyclotides sensitize human breast adenocarcinoma (MCF-7) and drug-resistant human breast adenocarcinoma (MCF-7/ADR) cells to the FDA-approved anti-cancer drug, doxorubicin. In that case, one ...

## CC(C)C[C@@H]1NC(=O)CNC(=O)[C@H](CC(N)=O)NC(=O)[C@H](CCCNC(=N)N)NC(=O)[C@H]([C@@H](C)O)NC(=O)[C@@H]2CSSC[C@@H]3NC(=O)[C@H]([C@@H](C)O)NC(=O)CNC(=O)CNC(=O)[C@H](C(C)C)NC(=O)[C@@H]4CSSC[C@H](NC(=O)[C@H]([C@@H](C)O)NC(=O)[C@H](CSSC[C@H](NC(=O)[C@H](C(C)C)NC(=O)[C@@H]5CCCN5C1=O)C(=O)NCC(=O)N[C@@H](CCC(=O)O)C(=O)N[C@@H]([C@@H](C)O)C(=O)N4)NC(=O)CNC(=O)[C@@H]1CCCN1C(=O)[C@H]([C@@H](C)O)NC(=O)[C@H](CC(N)=O)NC3=O)C(=O)N[C@@H](CO)C(=O)N[C@@H](Cc1c[nH]c3ccccc13)C(=O)N1CCC[C@H]1C(=O)N[C@@H](C(C)C)C(=O)N2 [Kalata B1 (synthetic), Kalata B1]
[1]
  IC50: 2.6 ± 0.24 µM
[2]
  IC50: 5.4 ± 1.06 µM
[3]; data points of 3 h, 8 h and 24 h, human serum from male AB plasma, 300 µM stock diluted 10 times, UPLC-MS peak area vs control, triplicate, listed as synthetic Kalata B1
  Stability in human serum (in words): remains stable
[3]; human serum isolated from male AB plasma, UPLC-MS
  Time for which the peptide remains stable in human serum: at least 24 h
[4]
  Fold lower TMZ concentration than TMZ IC50 still giving significant cytotoxicity on co-exposure: 16 fold

## [T20K] Kalata B1: a Kalata B1 mutant (cyclo(GLPVCGETCVGGTCNTPGCKCSWPVCTRN); disulfide (positions not given here); ends not checked; also: disulfides, places not given here; UniProt P56254 89-117, looked up, variant T20K)
[5]
  Anti-tumor effect in ALCL mouse model: decreased tumor weight and increased apoptosis
interleukin-2 (IL-2)
  Effect on IL-2 expression, IL-2 cytokine secretion and IL-2 gene expression: could decrease

## Cycloviolacin O2 [CyO2]
mice; mice treated with 1.5 mg/kg in tumor mouse models
  In vivo toxicity at 1.5 mg/kg: no signs of discomfort
mice; mice, single injection 2 mg/kg
  In vivo toxicity, single injection at 2 mg/kg: lethal
U-87 glioblastoma cells
  IC50: 0.45 µM
U-87 MG cells
  Fold less TMZ required for significant cell death on co-exposure with the cyclotide: 8 fold
Glioblastoma cells
  IC50: 4.5 µM
U-251 glioblastoma cells
  IC50: 0.79 µM
[6]
  Membrane disruption: did not produce significant membrane disruption

Reference: PMC11505038, “Kalata B1 Enhances Temozolomide Toxicity to Glioblastoma Cells” (Biomedicines, 2024)
